# Results as given in US10450260B2, “NO- and H2S-releasing compounds” (RESEARCH FOUNDATION OF THE CITY UNIVERSITY OF NEW YORK, priority 2011, dated 2019).
# “And” between values parts separate entries of the source, which are not always exact repeats. Identical values can stand only once. Like-named read-outs stand apart in the source and are kept apart here.
# Key:
# [1] = system: HT-29 human colon cancer cells; experiment: MTT cell growth inhibition, HT-29; format: cell-based; conditions: for IC50: Homo sapiens; for Ratio NSAID/NOSH-NSAID, HT-29: fold-enhancement in potency over the parent compound
# Experimental: HT-29, SW-480 and HCT-15 human colon adenocarcinoma, MIA PaCa-2 and BxPC-3 human pancreatic cancer, LNCAP human prostate cancer, A549 human lung cancer, MCF-7 (estrogen receptor positive), MDA-MB 231 and SK-BR-3 (estrogen receptor negative) human breast cancer, and Jurkats human leukemia cell lines were obtained from American Type Tissue Collection (Manassas, Va.). All cells lines were grown as monolayers except for the Jurkats which were grown in suspension. The pancreatic and breast cancer cells were grown in Dulbecco's modified Eagle's medium, the prostate, Jurkat, SW-480 and HCT-15 colon cells were grown in RPMI 1640 medium, the lung cells were grown in F-12 and the colon HT-29 cells were grown in McCoy 5A. All media were supplemented with 10% fetal calf serum (Invitrogen, Carlsbad, Calif.) penicillin (50 U/ml), and streptomycin (50 μg/ml) (Invitrogen, Carlsbad, Calif.). Cells were seeded on culture dishes at a density of 25×10^3 cells/cm^2 and incubated at 37° C. in 5% CO2 and 90% relative humidity. Single cell suspensions were obtained by trypsinization (0.05% trypsin/EDTA), and cells were counted using a hemocytometer. Viability was determined by the trypan blue dye exclusion method.
# Cell growth inhibitory effect of NOSH compounds were measured using a colorimetric MTT assay kit (Roche, Indianapolis, Ind.). Cancer cells were plated in 96-well plates at a density of 50,000 cells/well. The cells were incubated for 24 h with different concentrations of NOSH compounds. After the indicated time, 10 μl of MTT dye (3-[4,5-dimethylthiazol-2-yl]-2,5-diphenyl tetrazolium bromide, 5 mg/ml in phosphate buffered saline), was added to each well, and the plates were incubated for 2 hours at 37° C. Then, the media was aspirated, and add 100 μl of the solubilization solution (10% SDS in 0.01 M HCl) was added to each well to solubilize the formant crystals. The absorbance of the plates was measured on an ELISA reader at a wavelength of 570 nm. Each sample was performed in triplicate, and the entire experiment was repeated three times.
# HT-29 human colon cancer cells were obtained from American Type Tissue Collection (Manassas, Va.) and grown as monolayer in McCoy 5A media that was supplemented with 10% fetal calf serum (Invitrogen, Carlsbad, Ca.), penicillin (50 U/ml), and streptomycin (50 μg/ml) (Invitrogen, Carlsbad, Calif.).
# Growth inhibition was measured using a colorimetric MTT assay kit (Roche, Indianapolis, Ind.). Proliferation (PCNA) was assessed using an ELISA kit from Calbiochem, (La Jolla, Calif.). Cell cycle phase distributions and apoptosis of control and treated cells were determined as previously described. All methods are described in Chattopadhyay et al., Biochemical Pharmacology, 2012, 83(6), 715-722.
# HT-29, SW-480 and HCT-15 human colon adenocarcinoma, MIA PaCa-2 and BxPC-3 human pancreatic cancer, LNCAP human prostate cancer, A549 and H383 human lung cancer, MCF-7, MDA-MB 231 and SK-BR-3 human breast cancer and Jurkat T cell human leukemia cell lines were obtained from American Type Tissue Collection (Manassas, Va.) All cells lines were grown as monolayers except for the Jurkat T cells which were grown as suspension culture. The pancreatic and breast cancer cells were grown in Dulbecco's modified Eagle's medium, the prostate, Jurkat, SW-480 and HCT-15 colon cells were grown in RPMI 1640 medium, the lung cells were grown in F-12 and the colon HT-29 cells were grown in McCoy 5A. All media were supplemented with 10% fetal calf serum (Invitrogen, Carlsbad, Calif.) penicillin (50 U/ml), and streptomycin (50 μg/ml) (Invitrogen, Carlsbad, Calif.). Cells were seeded on culture dishes at a density of 25×10^3 cells/cm^2 and incubated at 37° C. in 5% CO2 and 90% relative humidity. Single cell suspensions were obtained by trypsinization (0.05% trypsin/EDTA), and cells were counted using a hemacytometer. The final DMSO concentration was adjusted in all media to 1%. Viability was determined by the trypan blue dye exclusion method. […]
# ovine COX-2 = target: T1, ovine COX-2 (Ovis aries, UniProt P79208); experiment: COX-2 enzyme activity, colorimetric inhibitor screening kit; format: biochemical; conditions: for inhibition at 3000 µM: read-out: COX-2-% Inhibition, 3 mM (Table 8)
# T1 construct: purchased Cayman Chemicals (Ann Arbor, Mich.)
# T1 sequence (P79208 17-603): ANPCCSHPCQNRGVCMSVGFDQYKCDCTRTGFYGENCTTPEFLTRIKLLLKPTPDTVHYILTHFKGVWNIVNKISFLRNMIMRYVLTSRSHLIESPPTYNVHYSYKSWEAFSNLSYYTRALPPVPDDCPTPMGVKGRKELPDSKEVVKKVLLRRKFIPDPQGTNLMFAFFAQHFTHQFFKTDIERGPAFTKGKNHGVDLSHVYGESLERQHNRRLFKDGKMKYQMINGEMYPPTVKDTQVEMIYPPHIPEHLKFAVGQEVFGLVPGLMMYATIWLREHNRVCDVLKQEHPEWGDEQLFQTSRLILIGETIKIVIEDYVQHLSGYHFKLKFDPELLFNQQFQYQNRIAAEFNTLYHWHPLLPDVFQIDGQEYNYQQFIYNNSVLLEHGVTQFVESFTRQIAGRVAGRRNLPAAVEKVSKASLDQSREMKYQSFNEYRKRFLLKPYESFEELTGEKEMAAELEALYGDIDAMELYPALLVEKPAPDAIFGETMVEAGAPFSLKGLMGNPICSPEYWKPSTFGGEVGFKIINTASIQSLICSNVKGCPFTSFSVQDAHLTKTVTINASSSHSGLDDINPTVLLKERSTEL
# ovine COX-1 = target: T2, ovine COX-1 (Ovis aries, UniProt P05979); experiment: COX-1 enzyme activity, colorimetric inhibitor screening kit; format: biochemical; conditions: for preference between COX-1 and COX-2 enzyme inhibition: ovine COX-1 vs COX-2
# T2 construct: purchased Cayman Chemicals (Ann Arbor, Mich.)
# T2 sequence (P05979 25-600): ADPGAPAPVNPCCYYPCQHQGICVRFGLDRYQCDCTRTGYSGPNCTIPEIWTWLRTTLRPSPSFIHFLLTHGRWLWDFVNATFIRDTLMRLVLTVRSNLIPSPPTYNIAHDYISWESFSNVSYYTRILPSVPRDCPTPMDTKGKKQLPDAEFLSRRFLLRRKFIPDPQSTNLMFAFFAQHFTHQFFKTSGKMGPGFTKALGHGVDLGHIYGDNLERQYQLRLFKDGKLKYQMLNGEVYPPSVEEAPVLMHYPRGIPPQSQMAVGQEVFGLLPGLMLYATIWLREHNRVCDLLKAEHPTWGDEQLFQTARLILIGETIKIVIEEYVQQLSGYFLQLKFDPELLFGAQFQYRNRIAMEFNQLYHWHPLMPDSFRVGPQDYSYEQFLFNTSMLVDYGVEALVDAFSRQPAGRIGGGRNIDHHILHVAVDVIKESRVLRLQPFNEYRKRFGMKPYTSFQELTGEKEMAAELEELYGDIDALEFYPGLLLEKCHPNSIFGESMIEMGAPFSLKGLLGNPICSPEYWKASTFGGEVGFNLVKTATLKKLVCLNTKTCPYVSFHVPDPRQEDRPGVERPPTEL
# [2] = HT-29, 24 h (Table 5), in combinations the IC50 of ASA with fixed concentrations of SNAP and/or ADT-OH, read-out: IC50 at 24 hours for HT-29 cell growth inhibition
# [3] = HT-29 cells, 24 h, read-out: IC50, 24 h
# [4] = HT-29 colon cancer cells, 24 hours (Table 3), read-out: IC50 at 24 hours for cell growth inhibition
# [5] = 1 mM, 15 min at 4° C. (Table 8)
# [6] = HT-29, 24 hours, read-out: IC50 for cell growth inhibition, Colon HT-29
# [7] = 50 nM (Table 8), listed as NOSH-ASA, 0.05 µM
# [8] = HT-29, 24 hours (Table 7), read-out: IC50 for cell growth inhibition, Colon HT-29
# [9] = 80 nM (Table 8), listed as NOSH-NAPROXEN, 0.08 µM
# [10] = 89 nM (Table 8), listed as NOSH-SULINDAC, 0.089 µM
compound,measurement,setting,value
"CC(=O)Oc1ccccc1C(=O)O [ASA, aspirin, reference compound]",IC50,[1]; [2],> 1000 µM
same,IC50,[1]; [3],> 5000 µM
same,IC50,[1]; [4],> 5000 µM
same,COX-2-% Inhibition,ovine COX-2; [5],70.2%
same,inhibition at 1000 µM,"ovine COX-2; read-out: COX-2 % Inhibition, 1 mM (Table 6)",50.6 ± 1.1%
same,inhibition at 1000 µM,"ovine COX-2; read-out: COX-2-% Inhibition, 1 mM, 15 min at 4° C. (Table 8)",68.4%
same,inhibition at 3000 µM,ovine COX-2,74.6%
same,"COX-1, % Inhibition",ovine COX-1; 1 mM (Table 6),53.2±1.8%
same,COX 1-% Inhibition,ovine COX-1; [5],84.9% and 85.9%
same,COX 1-% Inhibition,ovine COX-1; 3 mM (Table 8),86.5%
"O=C(CCCO[N+](=O)[O-])Oc1ccccc1C(=O)Oc1ccc(-c2cc(=S)ss2)cc1 [NOSH-1, 4-(3-thioxo-3H-1,2-dithiol-5-yl)phenyl 2-((4-(nitrooxy)butanoyl)oxy)benzoate]",potency of intact NOSH-1 over the combination ASA plus SNAP and ADT-OH,"[1]; HT-29, 24 h",approximately 9000 fold
same,"Potency enhancement (ratio of IC50 values ASA/NOSH-1), 24 h","[1]; HT-29 cells, 24 h",">100,000 fold"
same,IC50,[1]; [6],0.048 ± 0.003 µM
same,IC50,[1]; [2],0.05 ± 0.005 µM
same,IC50,[1]; [3],0.0455 ± 0.0025 µM
same,IC50,[1]; [4],0.05 ± 0.003 µM
same,inhibition at 0.025 µM,ovine COX-2; 25 nM (Table 6),5.4 ± 0.7%
same,inhibition at 0.05 µM,ovine COX-2; 50 nM (Table 6),14.5 ± 1%
same,inhibition at 0.05 µM,ovine COX-2; 50 nM (Table 8),23.3%
same,COX-2-% Inhibition,ovine COX-2; [7],20.9%
same,inhibition at 0.1 µM,ovine COX-2; 100 nM (Table 6),27.2 ± 0.7%
same,inhibition at 0.1 µM,ovine COX-2; 100 nM (Table 8),29.1%
same,inhibition at 0.025 µM,ovine COX-1; 25 nM (Table 6),8.3 ± 1%
same,inhibition at 0.05 µM,ovine COX-1; 50 nM (Table 6),45.2 ± 2%
same,inhibition at 0.05 µM,ovine COX-1; 50 nM (Table 8),52.6%
same,COX 1-% Inhibition,ovine COX-1; [7],47.6%
same,inhibition at 0.1 µM,ovine COX-1; 100 nM (Table 6),69.4 ± 2.2%
same,inhibition at 0.1 µM,ovine COX-1; 100 nM (Table 8),67.9%
same,preference between COX-1 and COX-2 enzyme inhibition,ovine COX-1,preferentially inhibits COX-1
"O=C(CCC(=O)Oc1ccccc1C(=O)Oc1ccc(-c2cc(=S)ss2)cc1)OCCCCO[N+](=O)[O-] [NOSH-2, 4-(nitrooxy)butyl (2-((4-(3-thioxo-3H-1,2-dithiol-5-yl)phenoxy)carbonyl)phenyl) succinate]",IC50,[1]; [6],0.08 ± 0.005 µM
"NC(=S)c1ccc(OC(=O)c2ccccc2OC(=O)CCCO[N+](=O)[O-])cc1 [NOSH-3, 4-carbamothioylphenyl 2-((4-(nitrooxy)butanoyl)-oxy)benzoate]",IC50,[1]; [6],7.5 ± 0.355 µM
"O=C(CCCC[C@@H]1CCSS1)Oc1ccccc1C(=O)OCCCCO[N+](=O)[O-] [NOSH-4, (R)-4-(nitrooxy)butyl 2-((5-(1,2-dithiolan-3-yl)pentanoyl)oxy)benzoate]",IC50,[1]; [6],0.3 ± 0.035 µM
"CC(C(=O)Oc1ccc(-c2cc(=S)ss2)cc1)c1ccc2cc(OC(=O)CCCO[N+](=O)[O-])ccc2c1 (stereo not shown) [NOSH-7, 6-(1-oxo-1-(4-(3-thioxo-3H-1,2-dithiol-5-yl)phenoxy)propan-2-yl)naphthalen-2-yl 4-(nitrooxy)butanoate]",IC50,[1]; [8],0.08 µM
same,"Ratio NSAID/NOSH-NSAID, HT-29",[1],"34,687"
same,inhibition at 0.08 µM,ovine COX-2; 80 nM (Table 8),18.8%
same,COX-2-% Inhibition,ovine COX-2; [9],15.8%
same,inhibition at 0.16 µM,ovine COX-2; 160 nM (Table 8),11%
same,inhibition at 0.08 µM,ovine COX-1; 80 nM (Table 8),42.5%
same,COX 1-% Inhibition,ovine COX-1; [9],44.4%
same,inhibition at 0.16 µM,ovine COX-1; 160 nM (Table 8),52.3%
same,preference between COX-1 and COX-2 enzyme inhibition,ovine COX-1,preferentially inhibited COX-1
"CC1=C(CC(=O)Oc2ccc(OC(=O)CCCO[N+](=O)[O-])c(C(=O)Oc3ccc(-c4cc(=S)ss4)cc3)c2)c2cc(F)ccc2/C1=C/c1ccc([S+](C)[O-])cc1 (stereo not shown) [NOSH-8, (E)-4-(3-thioxo-3H-1,2-dithiol-5-yl)phenyl 5-(2-(5-fluoro-2-methyl-1-(4-(methylsulfinyl)benzylidene)-1H-inden-3-yl)acetoxy)-2-((4-(nitrooxy)butanoyl)oxy)benzoate]",IC50,[1]; [8],0.089 µM
same,"Ratio NSAID/NOSH-NSAID, HT-29",[1],"8,988"
same,inhibition at 0.089 µM,ovine COX-2; 89 nM (Table 8),13.6%
same,COX-2-% Inhibition,ovine COX-2; [10],12.3%
same,inhibition at 0.089 µM,ovine COX-1; 89 nM (Table 8),43.4%
same,COX 1-% Inhibition,ovine COX-1; [10],45.0%
same,preference between COX-1 and COX-2 enzyme inhibition,ovine COX-1,preferentially inhibited COX-1
"COc1ccc2cc([C@H](C)C(=O)O)ccc2c1 [naproxen, reference compound]",IC50,[1]; [8],2780 µM
same,COX-2-% Inhibition,ovine COX-2; 3 mM (Table 8),70.2%
same,inhibition at 3000 µM,ovine COX-2,68.6%
same,inhibition at 6000 µM,"ovine COX-2; read-out: COX-2-% Inhibition, 6 mM (Table 8)",74.6%
same,COX 1-% Inhibition,ovine COX-1; 3 mM (Table 8),80.1%
same,inhibition at 3000 µM,"ovine COX-1; read-out: COX 1-% Inhibition, 3 mM (Table 8)",84.7%
same,inhibition at 6000 µM,"ovine COX-1; read-out: COX 1-% Inhibition, 6 mM (Table 8)",91.9%
